Assay [1] deals with RBL-2H3 cells. Description: Inhibition of serotonin liberation from IgE-sensitized RBL-2H3 cells after antigen stimulation. Format: cell-based, rat. Conditions: [3H]-serotonin release, IgE-sensitized RBL-2H3 cells, antigen stimulation, read-out: IC50 (μM) in serotonin liberation from RBL-2H3 cells. The source says: IgE-sensitized RBL-2H3 cells (i.e., a cell line originating in rat cells) release and produce not only histamine and serotonin but also cytokines such as TNF α and prostaglandins which are inflammatory mediators after stimulation with IgE sepecific antibody. In this experimental system, inhibitory effects on various mediators release were examined by using serotonin as an indication.
The cells were beforehand labeled with [^3H]-labeled serotonin and, at the same time, sensitized with the IgE antibody. After incubating with the compounds of the present invention, the cells were stimulated with the specific antigen. Then the inhibitory activity of each compound was calculated from the amount of the [^3H]-labeled serotonin thus liberated into the medium and the amount of [^3H]-labeled serotonin liberated when no compound of the present invention was added.

Assay [2] concerns human basophils. Description: Inhibition of mediator (histamine, peptide leukotriene) liberation from human basophils stimulated with mite antigen. The format is cell-based. Conditions: enzyme immunoassay. As to the method:
6 ml of 6% dextran (for separating leukocytes, having a high molecular weight) was added to 20 ml of heparinized blood. After stirring well, the resulting mixture was allowed to stand at 37° C. for 30 min and thus erythrocytes were precipitated. The upper layer was taken up and phosphate buffered saline (D-PBS) was added thereto followed by centrifugation at 185 g for 8 minutes to give a crude leukocyte fraction. These cells were subjected to hypotonic hematolysis and then suspended in D-PBS(+) containing 0.1%-BSA. The resulting suspension was used in the subsequent experiment as the leukocyte fraction containing basophils. 0.4 ml of this cell suspension was preliminarily heated to 37° C. for 5 min and then 0.05 ml of a specimen solution was added thereto followed by a pretreatment at 37° C. for 15 min. Next, 0.05 ml of a mite antigen solution was added thereto to induce an antigen-antibody reaction. After 10 min, the reaction was ceased by ice-cooling. Then the reaction mixture was centrifuged at 185 g for 10 min and histamine and peptide leukotrienes in the resulting supernatant were determined by using enzyme immunoassay kits. From the results of the assay, the activities of the acridone derivatives of inhibiting the liberation of histamine and peptide leukotriene were determined.

The mark [3] stands for this setting: histamine, read-out: IC50 (μM) in mediator liberation from human basophils: histamine.
Where [4] appears, read: peptide leukotriene, read-out: IC50 (μM) in mediator liberation from human basophils: leukotriene.

Where two headings read alike, the source gives them in different places.

Take `COCOc1c(Cl)cccc1CNCCCN1c2ccccc2[S+]([O-])c2ccc(C)c(C)c21` (stereo not shown) [Example 48]: the IC50 was 0.3 µM in assay [1] (Rattus norvegicus), 3 to 10 µM in assay [2] (setting [3]) and 3 µM in assay [2] (setting [4]).
The matching figures for `COCOc1c(CNCCCN2c3ccccc3[S+]([O-])c3ccc(C)c(C)c32)cccc1OC(C)C` (stereo not shown) [Example 47]: 0.5 µM, 3 to 10 µM and 3 µM.
The matching figures for `Cc1ccc2c(c1C)N(CCCN(C)Cc1ccccc1OCCO)c1ccccc1[S+]2[O-]` (stereo not shown) [Example 173]: 0.3 µM, 30 µM and 10 µM.
For `Cc1ccc2c(c1C)N(CCCNCCOc1ccccc1)c1ccccc1[S+]2[O-]` (stereo not shown) [Example 113], the IC50 in assay [1] (Rattus norvegicus) was 3 µM; in assay [2] (setting [3]), 10 µM; in assay [2] (setting [4]), under 10 µM.
The matching figures for `Cc1ccc2c(c1C)N(CCCN1CCN(Cc3ccccc3O)CC1)c1ccccc1[S+]2[O-]` (stereo not shown) [Example 114]: 2 µM, 30 to 100 µM and 10 µM.
Taken in the same sequence, the figures for `COc1cc(C)c(O)c(CN(C)CCCN2c3ccccc3[S+]([O-])c3ccc(C)c(C)c32)c1O` (stereo not shown) [Example 175] were 0.8 µM, 30 to 100 µM and 10 µM.
Taken in the same sequence, the figures for `Cc1ccc2c(c1C)N(CCCNCc1cccc(N(C)C)c1)c1ccccc1[S+]2[O-]` (stereo not shown) [Example 49] were 2 µM, 10 µM and 3 to 10 µM.
As for `Cc1ccc2c(c1C)N(CCNCc1ccccc1O)c1ccccc1[S+]2[O-]` (stereo not shown) [Example 144], the figures for the IC50 in assay [1] (Rattus norvegicus), in assay [2] (setting [3]) and in assay [2] (setting [4]) were 8 µM, 10 to 30 µM and 10 to 30 µM, respectively.
In the case of `Cc1ccc2c(c1C)N(CCCNCc1[nH]cnc1-c1ccccc1)c1ccccc1[S+]2[O-]` (stereo not shown) [Example 69], the values for the IC50 in assay [1] (Rattus norvegicus), in assay [2] (setting [3]) and in assay [2] (setting [4]) were 1 µM, 10 µM and 3 to 10 µM, respectively.
Taken in the same sequence, the figures for `Cc1ccc2c(c1C)N(CCNCc1ccc(S(N)(=O)=O)cc1)c1ccccc1[S+]2[O-]` (stereo not shown) [Example 195] were 0.5 µM, 30 to 100 µM and 10 to 30 µM.
`Cc1ccc2c(c1C)N(CCCNC(CO)c1ccccc1)c1ccccc1[S+]2[O-]` (stereo not shown) [Example 128]: the IC50 in assay [1] (Rattus norvegicus) was 1 µM; in assay [2] (setting [4]) it was 10 to 30 µM.
Regarding `Cc1ccc2c(c1C)N(CCCNCc1cccc(OC(C)C)c1O)c1ccccc1[S+]2[O-]` (stereo not shown) [Example 28], the IC50 in assay [1] (Rattus norvegicus) was 0.8 µM; in assay [2] (setting [3]), 10 to 30 µM; in assay [2] (setting [4]), 3 µM.
For the molecule `COc1ccsc1CNCCCN1c2ccc(F)cc2[S+]([O-])c2ccc(C)c(C)c21` (stereo not shown) [Example 87], the IC50 in assay [1] (Rattus norvegicus) is 3 µM; in assay [2] (setting [3]), 3 to 10 µM; in assay [2] (setting [4]), 3 to 10 µM.
`Cc1ccc2c(c1C)N(CCNCc1c(O)cccc1O)c1ccccc1[S+]2[O-]` (stereo not shown) [Example 150]: the IC50 in assay [1] (Rattus norvegicus) was 1 µM; in assay [2] (setting [3]), 10 to 30 µM; in assay [2] (setting [4]) it was 3 to 10 µM.
Taken in the same sequence, the figures for `Cc1ccc2c(c1C)N(CCNCc1ncc[nH]1)c1ccccc1[S+]2[O-]` (stereo not shown) [Example 162] were 1 µM, 30 to 100 µM and under 10 µM.
Taken in the same sequence, the figures for `Cc1ccc2c(c1C)N(CCCNCc1cccc(Cl)c1O)c1ccccc1[S+]2[O-]` (stereo not shown) [Example 29] were 0.8 µM, 10 to 30 µM and 3 to 10 µM.
On to `COc1cc(C)c(O)c(CNCCCN2c3ccccc3[S+]([O-])c3ccc(C)c(C)c32)c1O` (stereo not shown) [Example 39], for which the IC50 was 2 µM in assay [1] (Rattus norvegicus), 10 to 30 µM in assay [2] (setting [3]) and 10 to 30 µM in assay [2] (setting [4]).
With `Cc1ccc2c(c1C)N(CCCNCc1ccccc1)c1cc(Cl)ccc1[S+]2[O-]` (stereo not shown) [Example 84], the IC50 in assay [1] (Rattus norvegicus) is 2 µM; in assay [2] (setting [3]), under 3 µM; in assay [2] (setting [4]), under 3 µM.
For `COc1cccc(CN(C)CCN2c3ccccc3[S+]([O-])c3ccc(C)c(C)c32)c1O` (stereo not shown) [Example 180], the IC50 in assay [1] (Rattus norvegicus) was 2 µM; in assay [2] (setting [3]), 30 to 100 µM; in assay [2] (setting [4]), 3 to 10 µM.
The matching figures for `Cc1ccc2c(c1C)N(CCCNCc1ccc3c(c1)OCCO3)c1ccccc1[S+]2[O-]` (stereo not shown) [Example 53]: 0.8 µM, 30 to 100 µM and 10 to 30 µM.
The matching figures for `COc1cccc(CNCCN2c3ccccc3[S+]([O-])c3ccc(C)c(C)c32)c1O` (stereo not shown) [Example 154]: 6 µM, 10 to 30 µM and under 10 µM.
Taken in the same sequence, the figures for `COCc1cccc(CNCCCN2c3ccccc3[S+]([O-])c3ccc(C)c(C)c32)c1O` (stereo not shown) [Example 35] were 1 µM, 3 µM and 3 to 10 µM.
Consider `Cc1ccc2c(c1C)N(CCCNCc1ccco1)c1ccccc1[S+]2[O-]` (stereo not shown) [Example 62], for which the IC50 in assay [1] (Rattus norvegicus) was 3 µM; in assay [2] (setting [3]), 10 µM; in assay [2] (setting [4]), 3 µM.
For the molecule `Cc1ccc2c(c1C)N(CCCNCCc1ccccc1)c1ccc(F)cc1[S+]2[O-]` (stereo not shown) [Example 86], the values for the IC50 in assay [1] (Rattus norvegicus), in assay [2] (setting [3]) and in assay [2] (setting [4]) were 1 µM, 10 to 30 µM and 10 µM, respectively.
On to `Cc1ccc2c(c1C)N(CCNCc1ccccc1CO)c1ccccc1[S+]2[O-]` (stereo not shown) [Example 156], for which the IC50 in assay [1] (Rattus norvegicus) came to 3 µM; in assay [2] (setting [3]), 10 µM; in assay [2] (setting [4]), 10 µM.
Turning to `COc1cccc(CNCCCN2c3ccccc3[S+]([O-])c3ccc(C)c(C)c32)c1O` (stereo not shown) [Example 27], the results for the IC50 in assay [1] (Rattus norvegicus), in assay [2] (setting [3]) and in assay [2] (setting [4]) were 3 µM, 30 to 100 µM and 10 to 30 µM, respectively.
Taken in the same sequence, the figures for `Cc1ccc2c(c1C)N(CCCNCc1ccccc1N)c1ccccc1[S+]2[O-]` (stereo not shown) [Example 51] were 2 µM, 10 to 30 µM and 10 to 30 µM.
Consider `Cc1ccc2c(c1C)N(CCCN(C)Cc1ccc(O)cc1)c1ccccc1[S+]2[O-]` (stereo not shown) [Example 165], for which the IC50 is 0.3 µM in assay [1] (Rattus norvegicus), 10 to 30 µM in assay [2] (setting [3]) and 3 to 10 µM in assay [2] (setting [4]).
The matching figures for `Cc1ccc2c(c1C)N(CCCNCc1ccc(O)c(C(=O)O)c1)c1ccccc1[S+]2[O-]` (stereo not shown) [Example 32]: 0.5 µM, 30 to 100 µM and 10 to 30 µM.
The matching figures for `Cc1ccc2c(c1C)N(CCCN(C)Cc1ccccc1)c1cc(-c3nnn(C)n3)ccc1[S+]2[O-]` (stereo not shown) [Example 190]: 0.5 µM, 3 µM and 10 µM.
Taken in the same sequence, the figures for `Cc1ccc2c(c1C)N(CCCN(C)Cc1cccc(O)c1)c1ccccc1[S+]2[O-]` (stereo not shown) [Example 166] were 0.5 µM, 10 to 30 µM and 3 to 10 µM.
With `Cc1ccc2c(c1C)N(CCCN1CCN(C(CO)c3ccccc3)CC1)c1ccccc1[S+]2[O-]` (stereo not shown) [Example 117], in assay [1] (Rattus norvegicus), the IC50 stood at 2 µM.
Still for that read-out and setting: as for `COc1cc(C(N)=O)sc1CNCCCN1c2ccccc2[S+]([O-])c2ccc(C)c(C)c21` (stereo not shown) [Example 79], the figure is 2 µM; as for `COc1cc2c(c(C)c1C)N(CCCNCc1ccccc1)c1ccccc1[S+]2[O-]` (stereo not shown) [Example 99], 5 µM.
With `COC(=O)c1cccc2c1[S+]([O-])c1ccc(C)c(C)c1N2CCCNCc1ccccc1` (stereo not shown) [Example 91], in assay [1] (Rattus norvegicus), the IC50 is 5 µM.
On to `Cc1ccccc1CNCCCn1c2ccccc2c(=NOCCC(=O)O)c2ccc(C)c(C)c21` [Example 249], for which the IC50 in assay [1] (Rattus norvegicus) is 10 µM.
`Cc1ccc2c(c1C)N(CCCNCc1ccccc1OCC(=O)O)c1ccccc1[S+]2[O-]` (stereo not shown) [Example 56]: the IC50 in assay [1] (Rattus norvegicus) turned out to be 3 µM.
Still for that read-out and setting: the same measure for `Cc1ccc2c(c1C)N(CCCNCC1CC1)c1ccccc1[S+]2[O-]` (stereo not shown) [Example 43]: 4 µM; for `Cc1ccc2c(c1C)N(CCCNCc1ccccn1)c1ccccc1[S+]2[O-]` (stereo not shown) [Example 70]: 2 µM.
Still for that read-out and setting: as for `Cc1ccc2c(c1C)N(CCCNCc1ccc(Cl)cc1Cl)c1cc(CCO)ccc1[S+]2[O-]` (stereo not shown) [Example 93], the figure is 3 µM; as for `Cc1ccc2c(c1C)N(CCN1CCN(Cc3ccccc3)CC1)c1ccccc1[S+]2[O-]` (stereo not shown) [Example 191, 1,2-Dimethyl-10-[2-(4-benzylpiperazin-1-yl)ethyl]-phenothiazine-5-oxide], 3 µM.
Turning to `CO/N=c1\c2ccccc2n(CCCN)c2c(C)c(C)ccc12` [Example 208, (E,Z)-3,4-Dimethyl-10-(3-aminopropyl)-9-acridoneoxime-O-methyl Ether], the IC50 in assay [1] turned out to be 3 µM.
For the molecule `COc1ncc(CNCCCN2c3ccccc3[S+]([O-])c3ccc(C)c(C)c32)c(OC)n1` (stereo not shown) [Example 78], the IC50 in assay [1] (Rattus norvegicus) was found to be 4 µM.
Same read-out and setting: as for `Cc1ccc2c(c1C)N(CCCNCc1cc(Br)cc(F)c1O)c1ccccc1[S+]2[O-]` (stereo not shown) [Example 40], the figure is 5 µM.
Same read-out and setting: as for `Cc1ccc2c(c1C)N(CCCNCc1ncc[nH]1)c1ccccc1[S+]2[O-]` (stereo not shown) [Example 63], the figure is 3 µM.

The values above are taken from patent US6703388B2, “Nitrogen-containing tricyclic compounds and drugs containing the same” (Eisai Co., Ltd., priority 1996, dated 2004).
